Laboratory results taken from patent publication US20170022171A1, “2,5-DISUBSTITUTED CYCLOPENTANECARBOXYLIC ACIDS AND THEIR USE” (Bayer Pharma Aktiengesellschaft, priority 2014, published 2017).

What follows are compounds tested against T1, human macrophage elastase (HME/hMMP-12) (Homo sapiens, UniProt P39900) (assay: In vitro HME inhibition test (standard or high-sensitivity)). Details: in some cases mean values.
T1 construct: 0.5 nM HME; purchased R&D Systems 917-MP
T1 sequence (P39900 106-470): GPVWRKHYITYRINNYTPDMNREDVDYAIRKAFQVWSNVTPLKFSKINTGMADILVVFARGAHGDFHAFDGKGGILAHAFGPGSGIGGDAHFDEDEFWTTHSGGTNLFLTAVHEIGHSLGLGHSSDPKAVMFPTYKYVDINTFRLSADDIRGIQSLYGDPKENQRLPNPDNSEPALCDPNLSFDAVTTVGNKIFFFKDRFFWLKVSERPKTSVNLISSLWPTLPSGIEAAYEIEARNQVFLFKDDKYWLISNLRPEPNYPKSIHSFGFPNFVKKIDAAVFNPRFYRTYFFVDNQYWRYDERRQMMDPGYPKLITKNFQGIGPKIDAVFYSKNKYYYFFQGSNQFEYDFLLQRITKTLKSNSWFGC
Assay type: biochemical
How it was run: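 Fluorogenic assay: 0.5 nM autoactivated HME with 5 µM Mca-Pro-Leu-Gly-Leu-Glu-Glu-Ala-Dap(Dnp)-NH2 in HEPES pH 7.4 buffer (NaCl, CaCl2, ZnCl2, EDTA, Brij), 2 h at 37 °C; ex 323/em 393 nm. IC50 from fluorescence versus concentration. High-sensitivity format: ~0.05 nM enzyme, ~16 h incubation.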
`CCCCCCOc1ccc(C(=O)[C@@H]2CC[C@H](Cn3nnc4ccc(C)cc4c3=O)[C@H]2C(=O)O)cc1` (single isomer, unassigned) [Example 122, (−)-(1RS,2RS,5SR)-2-[4-(Hexyloxy)benzoyl]-5-[(6-methyl-4-oxo-1,2,3-benzotriazin-3(4H)-yl)methyl]cyclopentanecarboxylic acid] was tested, and the IC50 was 190 nM. `CCCCCSc1ccc(C(=O)[C@@H]2CC[C@H](Cn3nnc4ccc(C(F)(F)F)cc4c3=O)[C@H]2C(=O)O)cc1` (single isomer, unassigned) [Example 89, (+)-(1RS,2SR,5RS)-2-{[4-Oxo-6-(trifluoromethyl)-1,2,3-benzotriazin-3(4H)-yl]methyl}-5-[4-(pentylsulphanyl)benzoyl]cyclopentanecarboxylic acid] gave an IC50 of 0.045 nM. `CCCCOc1ccc(C(=O)[C@H]2CC[C@@H](Cn3nnc4ccc(C(F)(F)F)cc4c3=O)[C@@H]2C(=O)O)cc1` (racemic) [Example 66, (+/−)-(1RS,2RS,5SR)-2-(4-Butoxybenzoyl)-5-{[4-oxo-6-(trifluoromethyl)-1,2,3-benzotriazin-3 (4H)-yl]methyl}cyclopentanecarboxylic acid] showed an IC50 of 0.043 nM. `O=C(O)[C@@H]1[C@@H](Cn2nnc3ccc(C(F)(F)F)cc3c2=O)CC[C@H]1C(=O)c1ccc(OCCC2CCCCC2)cc1` (single isomer, unassigned) [Example 51, (−)-(1RS,2RS,5SR)-2-[4-(2-Cyclohexylethoxy)benzoyl]-5-{[4-oxo-6-(trifluoromethyl)-1,2,3-benzotriazin-3(4H)-yl]methyl}cyclopentanecarboxylic acid] gave an IC50 of 30 nM. Work on `COC(=O)Nc1cccc(COc2ccc(C(=O)[C@H]3CC[C@@H](Cn4nnc5ccc(C(F)(F)F)cc5c4=O)[C@@H]3C(=O)O)cc2)c1` (stereo in doubt) [Example 30, (+/−)-(1RS,2RS,5SR)-2-{4-({3-[(Methoxycarbonyl)amino]benzyl}oxy)benzoyl}-5-{[4-oxo-6-(trifluoromethyl)-1,2,3-benzotriazin-3(4H)-yl]methyl}cyclopentanecarboxylic acid] yielded an IC50 of 0.037 nM. In the case of `Cc1ccc2nnn(C[C@@H]3CC[C@H](C(=O)c4ccc(OCC5CCCCC5)cc4)[C@H]3C(=O)O)c(=O)c2c1` (racemic) [Example 116, (+/−)-(1RS,2RS,5SR)-2-[4-(Cyclohexylmethoxy)benzoyl]-5-[(6-methyl-4-oxo-1,2,3-benzotriazin-3(4H)-yl)methyl]cyclopentanecarboxylic acid], the IC50 is reported as 0.093 nM. Work on `CCCCCOc1ccc(C(=O)[C@@H]2CC[C@H](Cn3nnc4ccccc4c3=O)[C@H]2C(=O)O)cc1` (single isomer, unassigned) [Example 9, (−)-(1RS,2SR,5RS)-2-[(4-Oxo-1,2,3-benzotriazin-3(4H)-yl)methyl]-5-[4-(pentyloxy)benzoyl]cyclopentanecarboxylic acid] yielded an IC50 of 145 nM.
